Experimental findings from the supplement of paper PMC4862054 are described below.

Assay [1] concerns MDA-MB-468. Description: drug sensitivity score (DSS), CellTiter-Glo (DSS (AUC-based score)); higher = stronger drug effect (viability inhibition or cytotoxicity); extreme values may be limits of the assay. The settings on record: incubation time: 72 h. The method in brief: (§1)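 Breast cancer cell lines were seeded in 20 µl suspension into 384-well plates already holding compound and incubated for 72 h. Each compound was tested at 5 concentrations in 10-fold steps across its own 10,000-fold range. Plates were normalised to 0.1 % DMSO and a positive kill control after CellTox Green and then CellTiter-Glo readings. The area under the fitted dose-response curve served as the basis for the drug sensitivity score.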
On the technique in general: ATP-based viability assays read luminescence as a measure of living cells.

Assay [2] concerns Hs578T. The assay is described as above. The settings on record: incubation time: 72 h. An outline of the steps:
as §1

The subject of assay [3] is HDQ-P1. The description is as above. To be noted: incubation time: 72 h. An outline of the steps: as §1
The test system of assay [4] is BT-549. The settings on record: 72 h. The method in brief: (§2)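 Seeding of breast cancer cell lines (20 µl suspension) was done into 384-well plates pre-loaded with compound at 5 concentrations, 10-fold apart, covering a compound-specific 10,000-fold range. The plates were incubated for 72 h, read for CellTox Green fluorescence (485/520 nm), and then read for CellTiter-Glo luminescence after 10 min at room temperature. Every plate was normalised to 0.1 % DMSO and a positive kill control. Curve fitting gave the EC50, censored at the top concentration.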

The subject of assay [5] is CAL-51. Description: normalised viability (% of control), CellTiter-Blue; higher = more viable cells (about 100 = DMSO control). The settings on record: incubation time: 72 h. On the procedure: (§3)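 DSRT, CellTiter-Blue viability, 72 h incubation. Signal is normalised to DMSO and benzethonium chloride controls. Value is the normalised response at dose 8.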
A general note: Resazurin is reduced to fluorescent resorufin, in cell work by metabolically active cells.

For assay [6], the system named is DU-4475. Described as above. To be noted: incubation time: 72 h. On the procedure:
as §3

The test system of assay [7] is MDA-MB-453. The assay is described as above. To be noted: incubation time: 72 h. On the procedure:
as §3

For assay [8], the system named is HDQ-P1. Described as above. To be noted: incubation time: 72 h. On the procedure:
as §3

For a further assay, the system named is CAL-148. The description is as above. To be noted: incubation time: 72 h. On the procedure:
as §3

Assay [9] deals with CAL-85-1. Described as above. The settings on record: incubation time: 72 h. The protocol: as §3
Assay [10] relates to CAL-51. To be noted: 72 h. The method in brief:
as §2

For assay [11], the system named is MDA-MB-468. Description: normalised viability (% of control), CellTiter-Blue; higher = more viable cells (about 100 = DMSO control). The settings on record: incubation time: 72 h. The protocol: (§4)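 DSRT, CellTiter-Blue viability, 72 h incubation. Signal is normalised to DMSO and benzethonium chloride controls. Value is the normalised response at dose 3.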
For assay [12], the system named is DU-4475. Described as above. To be noted: incubation time: 72 h. On the procedure:
as §4
The source holds these as a separate data set.

Assay [13] concerns Hs578T. Described as above. To be noted: incubation time: 72 h. The protocol:
as §4

Assay [14] deals with MDA-MB-231. The description is as above. To be noted: incubation time: 72 h. On the procedure:
as §4

A further assay relates to HCC1143. The assay is described as above. The settings on record: incubation time: 72 h. On the procedure:
as §4

Assay [15] has as its system SK-BR-3. Described as above. The settings on record: incubation time: 72 h. On the procedure: as §4
Assay [16] relates to CAL-120. Described as above. The settings on record: incubation time: 72 h. On the procedure: as §4
Assay [17] has as its system BT-549. Described as above. The settings on record: incubation time: 72 h. The protocol: as §4
Assay [18] deals with CAL-85-1. The description is as above. The settings on record: incubation time: 72 h. The protocol: as §4
This is another data set of the same source.

Assay [19] has as its system BT-474. The assay is described as above. The settings on record: incubation time: 72 h. On the procedure:
as §4

The test system of assay [20] is MDA-MB-468. The settings on record: 72 h. An outline of the steps: as §2
The subject of assay [21] is Hs578T. To be noted: 72 h. An outline of the steps:
as §2

Another assay has as its system MCF-10A. To be noted: 72 h. An outline of the steps:
as §2

Assay [22] has as its system MDA-MB-231. To be noted: 72 h. The method in brief: as §2
Assay [23] has as its system MDA-MB-453. The settings on record: 72 h. The method in brief:
as §2

The subject of assay [24] is CAL-120. The settings on record: 72 h. The method in brief:
as §2

For another assay, the system named is HCC1937. The settings on record: 72 h. The method in brief:
as §2

Assay [25] concerns CAL-85-1. To be noted: 72 h. An outline of the steps:
as §2

For assay [26], the system named is BT-474. The settings on record: 72 h. An outline of the steps: as §2
For assay [27], the system named is SK-BR-3. To be noted: 72 h. An outline of the steps:
as §2

A further assay deals with MDA-MB-436. The settings on record: 72 h. The method in brief:
as §2

For the molecule `Nc1ncnc2c1c(COc1cccc(Cl)c1)nn2C1CCOCC1`, the drug sensitivity score in the assay on MDA-MB-468 [1], in the assay on Hs578T [2] and in the assay with HDQ-P1 [3] was 0 throughout. For the same molecule, the “EC50, CellTiter-Glo” value with BT-549 [4] is over 10000 nM.
In the case of `C[C@]12CC[C@H](O)CC1=CC[C@@H]1[C@@H]2CC[C@]2(C)C(c3cccnc3)=CC[C@@H]12` [Abiraterone], the normalised viability is 106% in the assay on CAL-51 [5] (1500 nM); 88.1% with DU-4475 [6] (1500 nM); 96% in the assay on MDA-MB-453 [7] (1500 nM); 125% in the assay with HDQ-P1 [8] (1500 nM); 98.1% in the assay on CAL-148 (1500 nM); 97.5% with CAL-85-1 [9] (1500 nM). Besides, the normalised viability in the assay on MDA-MB-468 [11] (50 nM) worked out at 107%; in the assay on DU-4475 [12] (5 nM), 94%; with Hs578T [13] (50 nM) it was 91.7%; in the assay on MDA-MB-231 [14] (50 nM), 95.6%; in the assay with HCC1143 (50 nM), 75.2%; in the assay on SK-BR-3 [15] (50 nM), 73.4%. For the same molecule, the normalised viability with CAL-120 [16] (50 nM) was determined as 87.6%; with BT-549 [17] (50 nM) it was 108%; in the assay with CAL-85-1 [18] (5 nM) it was 91.1%; in the assay with BT-474 [19] (50 nM), 112%. For the same molecule, the drug sensitivity score in the assay on MDA-MB-468 [1], in the assay with Hs578T [2] and in the assay with HDQ-P1 [3] was 0 throughout. Also, the “EC50, CellTiter-Glo” value with CAL-51 [10] came out at 43.4 nM.
`CC(C)(C#N)c1cc(Cn2cncn2)cc(C(C)(C)C#N)c1` [Anastrozole]: the normalised viability in the assay on CAL-51 [5] (3000 nM) was found to be 108%; in the assay with DU-4475 [6] (3000 nM) it was 96.5%; with MDA-MB-453 [7] (3000 nM), 103%; in the assay on HDQ-P1 [8] (3000 nM) it was 85.3%; in the assay on CAL-148 (3000 nM), 87.2%; with CAL-85-1 [9] (3000 nM), 82.8%. Moreover, the normalised viability in the assay with MDA-MB-468 [11] (100 nM) came to 107%; in the assay with DU-4475 [12] (10 nM), 98.6%; with Hs578T [13] (100 nM), 88.4%; in the assay with MDA-MB-231 [14] (100 nM), 92.7%; with HCC1143 (100 nM), 100%; with SK-BR-3 [15] (100 nM) it was 77.3%. Moreover, the normalised viability in the assay with CAL-120 [16] (100 nM) was determined as 88.5%; in the assay with BT-549 [17] (100 nM) it was 95.7%; in the assay with CAL-85-1 [18] (10 nM) it was 90.7%; in the assay on BT-474 [19] (100 nM), 101%. Further, the drug sensitivity score in the assay with MDA-MB-468 [1], in the assay with Hs578T [2] and in the assay with HDQ-P1 [3] was 0 in each case.
For `CC(C)c1c(C(=O)Nc2ccccc2)c(-c2ccccc2)c(-c2ccc(F)cc2)n1CC[C@@H](O)C[C@@H](O)CC(=O)O` [Atorvastatin], the drug sensitivity score in the assay with MDA-MB-468 [1] was 4.08; with Hs578T [2], 1.59; in the assay with HDQ-P1 [3], 5.79. Besides, the “EC50, CellTiter-Glo” value is 2210 nM in the assay with CAL-51 [10]; 4390 nM in the assay with MDA-MB-468 [20]; 7690 nM in the assay on Hs578T [21]; 2280 nM in the assay on MCF-10A; 1270 nM with MDA-MB-231 [22]; over 10000 nM in the assay on MDA-MB-453 [23]. The “EC50, CellTiter-Glo” value amounted to 1840 nM with CAL-120 [24], 2370 nM with HCC1937, 1900 nM in the assay with CAL-85-1 [25] and 1750 nM in the assay on BT-474 [26].
As to `O=C(O)CCCc1ccc(N(CCCl)CCCl)cc1` [Chlorambucil], the normalised viability with CAL-51 [5] (3000 nM) came out at 115%; in the assay with DU-4475 [6] (3000 nM), 125%; with MDA-MB-453 [7] (3000 nM), 108%; in the assay on HDQ-P1 [8] (3000 nM) it was 107%; in the assay with CAL-148 (3000 nM) it was 96.7%; in the assay with CAL-85-1 [9] (3000 nM), 97.7%. Further, the normalised viability was found to be 99.8% in the assay on MDA-MB-468 [11] (100 nM); 109% in the assay on DU-4475 [12] (10 nM); 106% in the assay with Hs578T [13] (100 nM); 103% in the assay with MDA-MB-231 [14] (100 nM); 104% in the assay with HCC1143 (100 nM); 97.8% in the assay on SK-BR-3 [15] (100 nM). Also, the normalised viability in the assay on CAL-120 [16] (100 nM) was 109%; with BT-549 [17] (100 nM), 100%; with CAL-85-1 [18] (10 nM), 96%; with BT-474 [19] (100 nM) it was 115%. The drug sensitivity score with MDA-MB-468 [1], with Hs578T [2] and in the assay on HDQ-P1 [3] was 0 throughout.
Take `Cn1c(=O)n(-c2ccc(C(C)(C)C#N)cc2)c2c3cc(-c4cnc5ccccc5c4)ccc3ncc21` [Dactolisib]: the drug sensitivity score with MDA-MB-468 [1] was determined as 13.2; in the assay on Hs578T [2], 14.9; in the assay with HDQ-P1 [3], 10.7. Besides, the “EC50, CellTiter-Glo” value in the assay with CAL-51 [10] came to 14.3 nM; in the assay on MDA-MB-468 [20], 23.1 nM; in the assay on Hs578T [21], 13.6 nM; in the assay on MCF-10A, 28.5 nM; with MDA-MB-231 [22], 11.8 nM; with MDA-MB-453 [23], 12 nM. Also, the “EC50, CellTiter-Glo” value was 14 nM in the assay with SK-BR-3 [27]; 9.42 nM in the assay on CAL-120 [24]; 13 nM with HCC1937; 9.82 nM in the assay with BT-549 [4]; 8.05 nM in the assay on CAL-85-1 [25]; 3.68 nM in the assay with MDA-MB-436. The “EC50, CellTiter-Glo” value in the assay on BT-474 [26] was found to be 9.85 nM.
